{"source": "patent US10188601B2", "about": "“Continuous long-term controlled release of telomerase inhibitors” (priority 2013, dated 2019)", "key": {"cellular DNA": {"tested_on": "cellular DNA", "procedure": "PdTMPyP4 was dissolved directly into medium as described above. After incubation with graded concentrations of PdTMPyp4 added to the medium for 24 or 48 h, the DNA was extracted and digested. […] Details of the methods used to extract the DNA fraction and prepare the samples for ICP-MS are given in Laster B H, et al. Brachytherapy. 2009; 8:324-30."}, "telomerase": {"tested_on": "telomerase", "conditions": "L428 cells, 24 h incubation, graded concentrations; Pd tag versus H2 tag", "procedure": "L428 cells were incubated for 24 h with graded concentrations of PdTMPyP4 or H2TMPyP4 dissolved in RPMI 1640 complete medium. The activation or inhibition of telomerase was measured using the Telomeric Repeat Amplification Protocol (TRAP) assay. The procedure is detailed in Tichon A, et al, Cytotherapy. 2009; 11:837-48."}, "[1]": {"conditions": "single rod per tumor", "source_text": "One PdTMPyP4 rod, prepared according to the Example 1, was implanted into the KHJJ tumor of each of 4 mice as described in the Example 7 above.\nBlood was withdrawn from the junction of the submandibular/facial vein, centrifuged, and the clear supernatant removed, diluted 1:100 and measured in double-distilled water (DDW) as described in the Example 10 below."}, "[2]": {"test": "In vitro release of PdTMPyP4 from PLGA rods over time in normal saline", "assay_type": "physicochemical", "description": "Eight rods, two each of matching weights, were placed in individual Eppendorf tubes with 1 ml of normal saline and incubated at 37° C. For measuring PdTMPyP4 release via absorbance, a 10 μl sample were removed and diluted 1:100 with DDW, and absorbance of the resulting solution measured in the spectrophotometer at 415 nm for the first 28 days. […] The removal of a 10 μl sample from the fresh saline solution required a 1:10 dilution in DDW for appropriate reading. […] To compare the release of PdTMPyP4 after the various dilutions, the concentrations were normalized to the dilution factor used during the first 28 days (1:100)."}, "[3]": {"tested_on": "L428 Hodgkin's lymphoma cells", "excerpt": "In these experiments, PdTMPyP4/PLGA rods, manufactured as described in the Example 1, were used to release and maintain the continuous exposure of exponentially-growing L428 Hodgkin's Lymphoma cells to PdTMPyP4 throughout the 8 day experiment. To maintain and encourage exponential growth, cells were split before they neared their maximum density 1.5×10^6 cells/ml. Precautions were taken, in advance, to prevent the dilution of the drug during cell splitting by placing the rods into the medium that would be used when splits were required. Cells were initially seeded into each of 3 different treatment flasks at a cell density of 3.0×10^5 cells/ml in a volume of 25 ml. The cultures were split at 120 and 192 hours. The flasks consisted of:\nFourteen ‘medium-transfer’ flasks were prepared in advance for use during the splitting of the flasks. Twelve (6 each) of these contained 25 ml of complete medium and either 2 PdTMPyP4/PLGA rods or 2 blank PLGA rods.\nTwo additional flasks contained 25 ml conditioned medium were prepared in advance, by removing from previously grown cells and sterilizing, and whereto either PdTMPyP4/PLGA or 2 PLGA rods were added. This approach permitted the same exponential growth conditions for all treatments even when the flasks were split.\nWhen cells in either flask A, B, or C neared their maximum cell density and required splitting, all flasks were split at this same time and medium from the transfer flasks was added to both the original and new flasks to restore the volume to 25 ml. A 3-ml aliquot of cells was removed from the flasks containing the suspension cells and was counted on a daily basis using a hemocytometer and trypan blue exclusion. The volume removed was replaced with the pretreated medium. […] Cells in each of the split dishes were counted, and counts from all flasks were combined to yield the total number of cells. By combining the cell counts from the split flasks, and using the total cell number, technical errors in counting the cells from the different flasks were reduced."}}}
{"smiles": "C[n+]1ccc(-c2c3nc(c(-c4cc[n+](C)cc4)c4ccc([n-]4)c(-c4cc[n+](C)cc4)c4nc(c(-c5cc[n+](C)cc5)c5ccc2[n-]5)C=C4)C=C3)cc1.[Pd+2]", "note": "[PdTMPyP4, Palladium-tagged tetra (4-N-methylpyridyl) porphyrin]", "values": [{"measurement": "effect of Pd tag on DNA uptake of the porphyrin", "setting": "cellular DNA; compared with naive TMPyP4", "value": "does not alter DNA uptake"}, {"measurement": "uptake in DNA converted to moles", "setting": "cellular DNA; incubation 24 or 48 h with graded concentrations", "value": "about 1.7×10^−14 mol"}, {"measurement": "measured uptake of Pd atoms in the DNA of the cell", "setting": "cellular DNA; incubation 24 or 48 h with graded concentrations, ICP-MS", "value": "about 10^9 Pd atoms"}, {"measurement": "telomerase activity inhibition", "setting": "telomerase", "value": "superior inhibition"}, {"measurement": "plasma levels by the second and third week", "setting": "[1]", "value": "restoration of plasma levels to that on day 0"}, {"measurement": "PdTMPyP4 concentration in blood plasma", "setting": "[1]; four mice, weekly measurements", "value": "negligible concentrations"}, {"measurement": "duration of gradual and continuous release", "setting": "[2]", "value": "> 30", "unit": "days"}, {"measurement": "time of sudden decrease in cells exposed", "setting": "[3]; 19-day experiment, continuous release from PLGA rods", "value": "about 200 h"}, {"measurement": "factor by which cell number was lower than with the other treatments", "setting": "[3]; 19-day experiment, from about 200 h through remaining 11 days", "value": "5-6 times"}, {"measurement": "cell number compared to the other treatments at end of experiment", "setting": "[3]; 8 day experiment, 264 h, versus untreated and blank PLGA", "value": "lower"}, {"measurement": "time to L428 cell lethality after telomerase inhibition", "setting": "[3]; continuous exposure via rods", "value": "about 8 days"}]}
